The results in this text go back to PMC3480714 (Nature chemical biology, 2012).

For the test, the target named is T1, CobL (Rhodobacter capsulatus, UniProt D5AV04).
T1 sequence (D5AV04 214-396): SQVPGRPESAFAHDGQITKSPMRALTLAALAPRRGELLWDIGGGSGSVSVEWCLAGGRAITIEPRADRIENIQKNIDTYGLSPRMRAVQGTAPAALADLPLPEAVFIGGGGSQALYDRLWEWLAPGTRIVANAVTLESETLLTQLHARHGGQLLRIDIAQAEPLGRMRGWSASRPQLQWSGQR
The experiment in a line: X-ray crystal structure at […] Å. In kind it is binding.

As to `Nc1ncnc2c1ncn2[C@@H]1O[C@H](CSCC[C@H](N)C(=O)O)[C@@H](O)[C@H]1O` [SAH], the “X-ray crystal structure at 2.7 Å” value is “The SAM binding site of the CobL^C subunit showing SAH bound at the C-terminal end of the Rossmann-like”.
